Structures can show the parent of a compound that is named as a salt.

The target in the assay is T1, recombinant human LTA4 hydrolase (rhLTA4H) (Homo sapiens, UniProt P09960).
T1 construct: made in house; host or cells: Spodoptera frugiperda (Sf-9) cells, recombinant baculovirus (pFastBac1)
T1 sequence (P09960 1-611): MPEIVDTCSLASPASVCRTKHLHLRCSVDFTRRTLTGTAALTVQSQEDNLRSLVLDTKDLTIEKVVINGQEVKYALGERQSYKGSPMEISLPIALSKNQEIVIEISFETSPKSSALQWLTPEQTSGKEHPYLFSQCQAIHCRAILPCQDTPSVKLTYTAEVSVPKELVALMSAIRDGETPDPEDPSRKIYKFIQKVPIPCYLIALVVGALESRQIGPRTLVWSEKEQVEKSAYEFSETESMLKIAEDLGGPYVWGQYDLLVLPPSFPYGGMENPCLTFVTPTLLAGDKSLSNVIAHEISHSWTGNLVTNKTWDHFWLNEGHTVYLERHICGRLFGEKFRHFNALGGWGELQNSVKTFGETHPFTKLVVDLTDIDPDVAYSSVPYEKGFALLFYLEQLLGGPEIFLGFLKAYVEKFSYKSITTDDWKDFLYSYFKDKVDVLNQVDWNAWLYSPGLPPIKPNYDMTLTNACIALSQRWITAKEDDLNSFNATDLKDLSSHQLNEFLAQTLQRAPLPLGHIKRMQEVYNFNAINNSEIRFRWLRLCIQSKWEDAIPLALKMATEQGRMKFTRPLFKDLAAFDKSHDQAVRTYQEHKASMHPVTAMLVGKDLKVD
In words: Recombinant human LTA4 hydrolase assay for LTA4 hydrolase inhibitor activity. In kind it is biochemical. The following applies: rhLTA4H, LTA4 substrate, LTB4 by immunoassay; single determination or average; read-out: IC50. Summed up:
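Recombinant human LTA4H from baculovirus-infected Sf-9 cells (10 ng) pre-incubated 10 min at rt with compound (10% DMSO in dilutions), then reacted with free-acid LTA4 for 30 min at rt. LTB4 measured by ELISA; IC50 by nonlinear regression. Values are single determinations or averages.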
The IC50 is the concentration at which inhibition is half-maximal. In the case of `OC1(c2ccccc2)CCN(CCc2ccc(Oc3nc4ncccc4s3)cc2)CC1` [Example 62, 4-Phenyl-1-{2-[4-([1,3]thiazolo[4,5-b]pyridin-2-yloxy)phenyl]ethyl}piperidin-4-ol], the IC50 came to 8.3 nM.
With `CC(=O)N1[C@@H]2CC[C@H]1CN(CCc1ccc(Oc3nc4nccc(C)c4s3)cc1)C2` [Example 209, meso-2-(4-{2-[8-Acetyl-3,8-diazabicyclo[3.2.1]oct-3-yl]ethyl}phenoxy)-7-methyl[1,3]thiazolo[4,5-b]pyridine], the IC50 is 157 nM.
With `NC(=O)C1CCN(Cc2ccc(Oc3nc4cccnc4s3)cc2)CC1` [Example 113, 1-[4-([1,3]Thiazolo[5,4-b]pyridin-2-yloxy)benzyl]piperidine-4-carboxamide] the figure was 570 nM; with `CS(=O)(=O)N[C@@H]1CC2CC[C@@H](C1)N2CCc1ccc(Oc2nc3cccnc3s2)cc1` [Example 194, meso-N-[(3-exo)-8-{2-[4-([1,3]Thiazolo[5,4-b]pyridin-2-yloxy)phenyl]ethyl}-8-azabicyclo[3.2.1]oct-3-yl]methanesulfonamide], 92 nM.
With `NCCCN(Cc1ccc(Oc2nc3ccncc3s2)cc1)CC1CC1` [Example 204, N-(Cyclopropylmethyl)-N-[4-([1,3]thiazolo[5,4-c]pyridin-2-yloxy)benzyl]propane-1,3-diamine hydrochloride] the figure was 576 nM; with `NC(=O)C1CCN(CCOc2ccc(Oc3nc4cccnc4s3)cc2)CC1` [Example 35, 1-{2-[4-([1,3]Thiazolo[5,4-b]pyridin-2-yloxy)phenoxy]ethyl}piperidine-4-carboxamide], 350 nM.
With `Cc1ccnc2nc(Oc3ccc(OCCN4CCC(O)(c5ccccn5)CC4)cc3)sc12` [Example 158, 1-(2-{4-[(7-Methyl[1,3]thiazolo[4,5-b]pyridin-2-yl)oxy]phenoxy}ethyl)-4-pyridin-2-ylpiperidin-4-ol] the figure was 194 nM.
In the case of `c1ccc2c(c1)CN(CCOc1ccc(Oc3nc4ncccc4s3)cc1)C2` [Example 2, 2-{4-[2-(1,3-Dihydro-2H-isoindol-2-yl)ethoxy]phenoxy}[1,3]thiazolo[4,5-b]pyridine], the IC50 worked out at 110 nM.
With `Cc1cnc2nc(Oc3ccc(CN4CCN(C5CCC5)CC4)cc3)sc2c1` [Example 183, 2-({4-[(4-Cyclobutylpiperazin-1-yl)methyl]phenyl}oxy)-6-methyl[1,3]thiazolo[4,5-b]pyridine] the figure was 67 nM; with `O=C(c1ccccn1)N1CCN(Cc2ccc(Oc3nc4ccncc4s3)cc2)CC1` [Example 217, 2-(4-{[4-(Pyridin-2-ylcarbonyl)piperazin-1-yl]methyl}phenoxy)[1,3]thiazolo[5,4-c]pyridine], 2510 nM.
As to `NC(=O)N[C@@H]1C[C@H]2CC[C@@H](C1)N2Cc1ccc(Oc2nc3ccncc3s2)cc1` [Example 200, meso-1-{(3-exo)-8-[4-([1,3]Thiazolo[5,4-c]pyridin-2-yloxy)benzyl]-8-azabicyclo[3.2.1]oct-3-yl}urea], the IC50 was determined as 374 nM.
With `NC(=O)N1[C@@H]2CC[C@H]1CN(CCc1ccc(Oc3nc4ncccc4s3)cc1)C2` [Example 210, meso-3-{2-[4-([1,3]Thiazolo[4,5-b]pyridin-2-yloxy)phenyl]ethyl}-3,8-diazabicyclo[3.2.1]octane-8-carboxamide hydrochloride] the figure was 6 nM; with `CC(=O)N1[C@@H]2CC[C@H]1C[C@H](NCc1ccc(Oc3nc4ncccc4s3)cc1)C2` [Example 170, meso-(3-exo)-8-Acetyl-N-{[4-([1,3]thiazolo[4,5-b]pyridin-2-yloxy)phenyl]methyl}-8-azabicyclo[3.2.1]octan-3-amine], 29 nM; with `CN(CCCN1CCCC1=O)CCOc1ccc(Oc2nc3ncc(Cl)cc3s2)cc1` [Example 155, 1-{3-[(2-{4-[(6-Chloro[1,3]thiazolo[4,5-b]pyridin-2-yl)oxy]phenoxy}ethyl)(methyl)amino]propyl}pyrrolidin-2-one], 329 nM.
As for `CC(=O)N1CCN(CCc2ccc(Oc3nc4ccncc4s3)cc2)CC1` [Example 176, 2-{4-[2-(4-Acetylpiperazin-1-yl)ethyl]phenoxy}[1,3]thiazolo[5,4-c]pyridine], the IC50 is 835 nM.
In the case of `OCCCN(CCOc1ccc(Oc2nc3ccncc3s2)cc1)CC1CC1` [Example 156, 3-[(Cyclopropylmethyl){2-[4-([1,3]thiazolo[5,4-c]pyridin-2-yloxy)phenoxy]ethyl}amino]propan-1-ol] it was 494 nM; in that of `Cc1ccnc2nc(Oc3ccc(OCCN4CCN(C(=O)c5ccncc5)CC4)cc3)sc12` [Example 143, 7-Methyl-2-(4-{2-[4-(pyridin-4-ylcarbonyl)piperazin-1-yl]ethoxy}phenoxy)[1,3]thiazolo[4,5-b]pyridine], 193 nM.
With `NC(=O)N[C@@H]1C[C@H]2CC[C@@H](C1)N2Cc1ccc(Oc2nc3nccnc3s2)cc1` [Example 199, meso-1-{(3-exo)-8-[4-([1,3]Thiazolo[4,5-b]pyrazin-2-yloxy)benzyl]-8-azabicyclo[3.2.1]oct-3-yl}urea] the figure was 42 nM; with `Clc1cnc2nc(Oc3ccc(CN4CCSCC4)cc3)sc2c1` [Example 189, 6-Chloro-2-{[4-(thiomorpholin-4-ylmethyl)phenyl]oxy}[1,3]thiazolo[4,5-b]pyridine], 308 nM; with `CC(C)(CO)NC(=O)C1CCN(CCOc2ccc(Oc3nc4cnccc4s3)cc2)CC1` [Example 161, N-(2-Hydroxy-1,1-dimethylethyl)-1-(2-{[4-([1,3]thiazolo[4,5-c]pyridin-2-yloxy)phenyl]oxy}ethyl)piperidine-4-carboxamide], 535 nM.
Turning to `CC(=O)N1C[C@@H]2C[C@H]1CN2Cc1ccc(Oc2nc3cc(F)cnc3s2)cc1` [Example 123, 2-(4-{[(1S,4S)-5-Acetyl-2,5-diazabicyclo[2.2.1]hept-2-yl]methyl}phenoxy)-6-fluoro[1,3]thiazolo[5,4-b]pyridine], the IC50 came to 180 nM.
With `Cc1cnc2nc(Oc3ccc(CN4CCC(C(=O)N5CCNCC5)CC4)cc3)sc2c1` [Example 229, 6-Methyl-2-(4-{[4-(piperazin-1-ylcarbonyl)piperidin-1-yl]methyl}phenoxy)[1,3]thiazolo[4,5-b]pyridine hydrochloride] the figure was 1090 nM; with `c1cnc2sc(Oc3ccc(OCCN4CCOCC4)cc3)nc2n1` [Example 150, 2-[4-(2-Morpholin-4-ylethoxy)phenoxy][1,3]thiazolo[4,5-b]pyrazine], 602 nM.
For `CC(=O)N(C)[C@@H]1C[C@H]2CC[C@@H](C1)N2Cc1ccc(Oc2nc3cccnc3s2)cc1` [Example 228, meso-N-Methyl-N-{(3-exo)-8-[4-([1,3]thiazolo[5,4-b]pyridin-2-yloxy)benzyl]-8-azabicyclo[3.2.1]oct-3-yl}acetamide], the IC50 was 135 nM.
In the case of `CC(=O)N1C[C@@H]2C[C@H]1CN2Cc1ccc(Oc2nc3nc(C)ccc3s2)cc1` [Example 126, 2-(4-{[(1S,4S)-5-Acetyl-2,5-diazabicyclo[2.2.1]hept-2-yl]methyl}phenoxy)-5-methyl[1,3]thiazolo[4,5-b]pyridine] it was 920 nM.
On to `NC(=O)N1C[C@@H]2C[C@H]1CN2CCOc1ccc(Oc2nc3cccnc3s2)cc1` [Example 21, (1S,4S)-5-{2-[4-([1,3]Thiazolo[5,4-b]pyridin-2-yloxy)phenoxy]ethyl}-2,5-diazabicyclo[2.2.1]heptane-2-carboxamide], for which the IC50 came to 160 nM.
With `FC(F)(F)C1CCN(CCOc2ccc(Oc3nc4cnccc4s3)cc2)CC1` [Example 164, 2-{[4-({2-[4-(Trifluoromethyl)piperidin-1-yl]ethyl}oxy)phenyl]oxy}[1,3]thiazolo[4,5-c]pyridine] the figure was 45 nM; with `FC1CCN(CCc2ccc(Oc3nc4nccnc4s3)cc2)CC1` [Example 180, 2-({4-[2-(4-Fluoropiperidin-1-yl)ethyl]phenyl}oxy)[1,3]thiazolo[4,5-b]pyrazine], 71 nM.
In the case of `NC(=O)C1CCN(CCc2ccc(Oc3nc4cccnc4s3)cc2)CC1` [Example 67, 1-{2-[4-([1,3]Thiazolo[5,4-b]pyridin-2-yloxy)phenyl]ethyl}piperidine-4-carboxamide] it was 190 nM; in that of `OC1(c2ccc(Cl)cc2)CCN(CCOc2ccc(Oc3nc4nccnc4s3)cc2)CC1` [Example 25, 4-(4-Chlorophenyl)-1-{2-[4-([1,3]thiazolo[4,5-b]pyrazin-2-yloxy)phenoxy]ethyl}piperidin-4-ol], 160 nM.
For `CS(=O)(=O)N[C@@H]1C[C@H]2CC[C@@H](C1)N2Cc1ccc(Oc2nc3ccncc3s2)cc1` [Example 249, meso-N-{(3-exo)-8-[4-([1,3]Thiazolo[5,4-c]pyridin-2-yloxy)benzyl]-8-azabicyclo[3.2.1]oct-3-yl}methanesulfonamide], the IC50 was determined as 141 nM.

Values taken from patent publication US20110190503A1, “Thiazolopyridin-2-yloxy-phenyl and thiazolopyrazin-2-yloxy-phenyl amines as modulators of leukotriene A4 hydrolase” (Janssen Pharmaceutical NV, priority 2008, published 2011).
